Experimental findings from ChEMBL document CHEMBL1201862, “PubChem BioAssay data set” (2004) are described below.

Activity calls are given as the source filed them. A value given as a limit tells only on which side of the number the result lay.

The test system of test [1] is HEK293. The test can be described thus: cells. To be noted: Homo sapiens.
The subject of test [2] is HEK293. The test can be described thus: cells. The conditions noted are these: Homo sapiens. The source holds these as a separate data set.
Test [3] has as its target T1, Nuclear receptor subfamily 0 group B member 1 (Homo sapiens, UniProt P51843).
T1 sequence (P51843 whole entry): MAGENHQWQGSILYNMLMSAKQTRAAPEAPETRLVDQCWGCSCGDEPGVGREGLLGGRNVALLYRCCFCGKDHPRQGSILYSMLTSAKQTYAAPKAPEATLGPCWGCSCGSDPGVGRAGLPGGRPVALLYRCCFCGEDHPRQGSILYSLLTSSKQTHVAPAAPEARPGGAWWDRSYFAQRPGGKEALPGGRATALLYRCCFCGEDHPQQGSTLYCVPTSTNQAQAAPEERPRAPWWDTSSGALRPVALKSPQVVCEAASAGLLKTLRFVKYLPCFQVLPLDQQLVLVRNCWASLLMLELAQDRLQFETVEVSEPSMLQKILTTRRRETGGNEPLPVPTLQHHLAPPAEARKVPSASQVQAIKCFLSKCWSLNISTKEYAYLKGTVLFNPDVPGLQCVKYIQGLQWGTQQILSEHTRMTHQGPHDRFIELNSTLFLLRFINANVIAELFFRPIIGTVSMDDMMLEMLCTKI
The test can be described thus: Luminescence-based cell-based high throughput dose response assay for inhibitors of the orphan nuclear receptor subfamily 0, group B, member 1 (DAX1; NR0B1). [Related pubchem assays (depositor defined):AID504766, AID504790]. In kind it is functional.

Test [4] has as its system HEK293. The test can be described thus: cells. Type of test: functional, cell-based. The conditions noted are these: Homo sapiens.
The target in the next test is T2, 14-3-3 protein gamma (Homo sapiens, UniProt P61981).
T2 sequence (P61981 whole entry): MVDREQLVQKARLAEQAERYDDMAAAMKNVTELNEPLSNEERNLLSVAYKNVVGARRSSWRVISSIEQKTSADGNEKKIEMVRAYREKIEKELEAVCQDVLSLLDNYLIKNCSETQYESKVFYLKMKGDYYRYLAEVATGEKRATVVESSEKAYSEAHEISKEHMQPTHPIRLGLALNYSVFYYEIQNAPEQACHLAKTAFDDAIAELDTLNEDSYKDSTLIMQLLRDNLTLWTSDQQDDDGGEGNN
As to the kind of experiment: modulators of 14-3-3 gamma client binding – dose response (AID 711). Type of test: functional.

The target in another test is T3, ORF 73 (Human herpesvirus 8, UniProt O40947).
T3 sequence (O40947 whole entry): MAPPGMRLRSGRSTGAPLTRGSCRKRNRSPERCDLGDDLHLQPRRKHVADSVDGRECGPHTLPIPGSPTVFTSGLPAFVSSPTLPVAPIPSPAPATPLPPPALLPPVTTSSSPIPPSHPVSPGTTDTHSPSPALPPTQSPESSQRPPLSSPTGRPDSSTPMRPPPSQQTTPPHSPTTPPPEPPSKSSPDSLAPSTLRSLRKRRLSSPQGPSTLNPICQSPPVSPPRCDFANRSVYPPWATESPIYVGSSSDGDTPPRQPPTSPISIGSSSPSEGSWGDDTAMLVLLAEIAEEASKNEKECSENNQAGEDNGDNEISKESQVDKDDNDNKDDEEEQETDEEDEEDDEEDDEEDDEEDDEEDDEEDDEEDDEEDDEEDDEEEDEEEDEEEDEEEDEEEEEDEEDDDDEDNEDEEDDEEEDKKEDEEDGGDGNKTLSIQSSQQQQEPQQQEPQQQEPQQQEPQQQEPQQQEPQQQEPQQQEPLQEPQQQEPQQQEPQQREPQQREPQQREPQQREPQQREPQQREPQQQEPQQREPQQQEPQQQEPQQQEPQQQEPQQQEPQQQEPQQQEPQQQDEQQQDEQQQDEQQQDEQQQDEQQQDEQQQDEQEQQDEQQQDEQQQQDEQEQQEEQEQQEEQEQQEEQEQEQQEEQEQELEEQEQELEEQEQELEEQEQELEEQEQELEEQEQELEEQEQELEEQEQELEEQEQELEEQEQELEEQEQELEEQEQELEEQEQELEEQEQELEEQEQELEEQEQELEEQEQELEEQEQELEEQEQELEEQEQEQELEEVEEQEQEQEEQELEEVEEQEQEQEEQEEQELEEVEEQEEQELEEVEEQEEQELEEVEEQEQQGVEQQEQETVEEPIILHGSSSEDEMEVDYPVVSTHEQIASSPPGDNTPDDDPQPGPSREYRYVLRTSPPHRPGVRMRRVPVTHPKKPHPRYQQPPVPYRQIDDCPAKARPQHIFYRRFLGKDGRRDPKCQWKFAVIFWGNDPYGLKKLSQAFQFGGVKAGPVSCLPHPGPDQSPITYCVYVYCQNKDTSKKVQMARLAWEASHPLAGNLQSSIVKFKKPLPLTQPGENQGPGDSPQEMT
The test can be described thus: inhibitors of C-LANA binding to LBS DNA, dose response, biochemical, fluorescence polarization, cherry-picked samples (AID 504725).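 Further: fluorescence polarization of a labeled DNA duplex reporting LANA DNA binding; potency is for inhibitors that block LANA binding to the DNA.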 Set-up: species or system Human gammaherpesvirus 8. A general note: In fluorescence polarisation assays a small probe gives low polarisation when free and higher when bound to something large.

The target in the next test is Keap1/Nrf2 (Homo sapiens, UniProt Q14145). As to the kind of experiment: Keap1-Nrf2 protein-protein interaction inhibitors, dose response, biochemical, fluorescence polarization, cherry-picked samples (AID 588683).
Keap1/Nrf2, sequence (Q16236 whole entry): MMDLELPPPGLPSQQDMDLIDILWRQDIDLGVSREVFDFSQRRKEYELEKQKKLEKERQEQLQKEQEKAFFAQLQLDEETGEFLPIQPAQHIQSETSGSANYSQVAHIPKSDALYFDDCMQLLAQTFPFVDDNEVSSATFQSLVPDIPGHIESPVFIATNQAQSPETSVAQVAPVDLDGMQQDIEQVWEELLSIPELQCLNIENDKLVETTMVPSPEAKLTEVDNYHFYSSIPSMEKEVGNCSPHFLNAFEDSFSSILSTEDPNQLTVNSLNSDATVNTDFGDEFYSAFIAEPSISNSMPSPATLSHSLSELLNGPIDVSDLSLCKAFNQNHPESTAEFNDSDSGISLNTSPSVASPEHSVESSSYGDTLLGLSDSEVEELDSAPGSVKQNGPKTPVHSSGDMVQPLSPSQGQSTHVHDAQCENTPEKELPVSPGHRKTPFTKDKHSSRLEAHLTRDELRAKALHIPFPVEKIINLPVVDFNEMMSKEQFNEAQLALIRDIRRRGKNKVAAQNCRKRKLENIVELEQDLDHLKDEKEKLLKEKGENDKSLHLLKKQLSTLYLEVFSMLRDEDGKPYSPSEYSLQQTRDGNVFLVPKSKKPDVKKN
Keap1/Nrf2, sequence (Q14145 whole entry): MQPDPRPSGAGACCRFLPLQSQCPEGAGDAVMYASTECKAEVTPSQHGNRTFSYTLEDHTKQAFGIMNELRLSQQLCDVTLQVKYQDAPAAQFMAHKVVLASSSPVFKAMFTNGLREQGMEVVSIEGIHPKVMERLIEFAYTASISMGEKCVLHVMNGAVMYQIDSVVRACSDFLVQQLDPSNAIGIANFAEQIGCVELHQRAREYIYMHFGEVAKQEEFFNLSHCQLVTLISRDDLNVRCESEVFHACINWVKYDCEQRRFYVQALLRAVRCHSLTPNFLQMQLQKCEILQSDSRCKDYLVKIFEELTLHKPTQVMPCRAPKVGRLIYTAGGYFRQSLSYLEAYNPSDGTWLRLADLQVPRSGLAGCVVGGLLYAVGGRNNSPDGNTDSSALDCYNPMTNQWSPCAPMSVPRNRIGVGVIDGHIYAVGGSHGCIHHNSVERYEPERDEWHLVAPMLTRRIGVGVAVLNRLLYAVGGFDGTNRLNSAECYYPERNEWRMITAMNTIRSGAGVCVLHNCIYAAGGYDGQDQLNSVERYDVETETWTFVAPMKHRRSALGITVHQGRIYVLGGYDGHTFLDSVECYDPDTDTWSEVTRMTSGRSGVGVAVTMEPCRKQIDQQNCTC
A short description of test [5]: THP-1 cell cytotoxicity, dose response, cytotoxicity control for non-replicating M. tuberculosis project (AID 489025). In kind it is functional.
A short description of test [6]: growth suppression of beta-catenin-knockout colon cells, dose response, cell-based, HCT116, human colon tumor (AID 1045).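 Further: HCT116 colon tumor cells with beta catenin knocked out; cells exposed to compound for 60 hours.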 In kind it is functional.
The next test deals with A-375. As to the kind of experiment: A375 melanoma cell viability reduction, dose response, counter-screen for MITF modulator project, cherry-pick samples, set 2 (AID 540335). The conditions noted are these: Homo sapiens. In kind it is functional, cell-based.
Test [7] is described as follows: growth suppression of PTEN-null colon cells, dose response, cell-based, HCT116 PTEN knockout (AID 1047).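 Further: HCT116 colon tumor cells with PTEN knocked out; cells exposed to compound for 60 hours before readout; potency for loss of cell viability measured by luminescence.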 Type of test: functional.
Test [8] can be described thus: Vero E6 cell cytotoxicity, dose response, cytotoxicity control for non-replicating M. tuberculosis project, secondary assay (AID 492998). Type of test: functional, VeroE6. The conditions noted are these: Vero C1008.
A further test is described as follows: cells. Type of test: functional.
The target in test [9] is T4, Ubiquitin-conjugating enzyme E2 N (Homo sapiens, UniProt P61088).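 Further: Dose-response confirmation in a TR-FRET assay detecting UBC13-driven polyubiquitin chain formation, inhibition measured.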
T4 sequence (P61088 whole entry): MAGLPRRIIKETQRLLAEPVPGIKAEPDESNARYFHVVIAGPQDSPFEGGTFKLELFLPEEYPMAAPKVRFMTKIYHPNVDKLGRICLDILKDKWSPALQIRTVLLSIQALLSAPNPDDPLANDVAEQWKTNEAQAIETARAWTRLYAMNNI
Type of test: functional.

Test [10] is described as follows: inhibitors of HIV Env-driven cell fusion, dose response, cherry-pick (AID 652057). In kind it is functional, cell-based.
The nature of test [11]: CEM21 lymphoblast cell cytotoxicity, dose response, cytotoxicity control for viral fusion inhibitor project, CellTiter-Glo luminescence, cherry-picked (AID 652042).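 Further: potency for signal decrease meaning cytotoxicity.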 Type of test: functional, cell-based. A general note: Cellular ATP, detected with luciferase, serves as a proxy for viable cell number.
The nature of test [12]: ZM109 Env clade C HIV-1 fusion inhibitors, dose response, HeLa effector, CEM target cells, luciferase, cherry-pick (AID 652058). In kind it is functional, cell-based.
Test [13] in a line: inhibitors of clade B AD8 Env fusion, dose response, cell-based, cherry-pick (AID 652062).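 Further: luciferase signal from cell-cell fusion driven by HIV-1 clade B AD8 Env; potency is for inhibitors of fusion seen as a drop in luminescence.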 In kind it is functional.
Test [14] in a line: off-target signal loss in HeLa-CEM21 co-culture – HeLa F-luc CTL cells, cherry-picked, counter-screen for HIV-1 Env fusion inhibitor project, dose response (AID 652040).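 Further: potency for signal decrease marking cytotoxic or nonspecific inhibition.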 In kind it is functional, cell-based.
Test [15] concerns the target T5, DNA repair and recombination protein RAD54-like (Homo sapiens, UniProt Q92698).
T5 sequence (Q92698 whole entry): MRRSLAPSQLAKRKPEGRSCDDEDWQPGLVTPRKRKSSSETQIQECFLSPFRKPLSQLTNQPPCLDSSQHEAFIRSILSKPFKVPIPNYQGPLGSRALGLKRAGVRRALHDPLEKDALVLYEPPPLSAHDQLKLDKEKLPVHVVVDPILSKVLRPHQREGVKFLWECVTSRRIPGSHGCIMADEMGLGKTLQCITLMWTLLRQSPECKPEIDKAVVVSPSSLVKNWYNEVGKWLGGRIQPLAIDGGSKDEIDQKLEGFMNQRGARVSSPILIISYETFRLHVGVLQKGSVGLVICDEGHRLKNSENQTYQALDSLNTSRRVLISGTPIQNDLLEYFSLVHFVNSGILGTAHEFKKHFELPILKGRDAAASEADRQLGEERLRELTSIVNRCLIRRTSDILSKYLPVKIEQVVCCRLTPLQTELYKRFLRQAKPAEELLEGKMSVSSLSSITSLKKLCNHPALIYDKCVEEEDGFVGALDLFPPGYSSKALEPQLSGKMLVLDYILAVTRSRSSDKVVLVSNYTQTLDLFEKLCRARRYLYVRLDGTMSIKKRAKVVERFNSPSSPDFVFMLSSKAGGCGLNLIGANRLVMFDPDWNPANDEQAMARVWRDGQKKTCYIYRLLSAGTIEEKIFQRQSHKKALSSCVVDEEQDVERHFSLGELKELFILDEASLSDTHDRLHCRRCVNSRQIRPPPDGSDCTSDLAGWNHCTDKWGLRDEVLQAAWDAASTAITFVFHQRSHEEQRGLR
The test can be described thus: inhibitors of human RAD54 branch migration, confirmation, biochemical, fluorescence, cherry-picked samples, dose series (AID 651657). Type of test: functional.

Test [16] addresses E3 ubiquitin-protein ligase Mdm2 (Homo sapiens, UniProt Q00987). As to the kind of experiment: enhancers of MDM2-luciferase reporter signal, concentration-effect titration, project on inhibitors of MDM2 ubiquitin ligase, cellular assay, luminescent readout, 384-well plate format (AID 1394).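 Further: MDM2 E3 inhibitors raise luminescence so EC50 is for signal enhancement.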 In kind it is functional. On the technique in general: In a reporter assay the amount or activity of a reporter protein is the signal.

The target in test [17] is T6, Microphthalmia-associated transcription factor (Homo sapiens, UniProt O75030).
T6 sequence (O75030 whole entry): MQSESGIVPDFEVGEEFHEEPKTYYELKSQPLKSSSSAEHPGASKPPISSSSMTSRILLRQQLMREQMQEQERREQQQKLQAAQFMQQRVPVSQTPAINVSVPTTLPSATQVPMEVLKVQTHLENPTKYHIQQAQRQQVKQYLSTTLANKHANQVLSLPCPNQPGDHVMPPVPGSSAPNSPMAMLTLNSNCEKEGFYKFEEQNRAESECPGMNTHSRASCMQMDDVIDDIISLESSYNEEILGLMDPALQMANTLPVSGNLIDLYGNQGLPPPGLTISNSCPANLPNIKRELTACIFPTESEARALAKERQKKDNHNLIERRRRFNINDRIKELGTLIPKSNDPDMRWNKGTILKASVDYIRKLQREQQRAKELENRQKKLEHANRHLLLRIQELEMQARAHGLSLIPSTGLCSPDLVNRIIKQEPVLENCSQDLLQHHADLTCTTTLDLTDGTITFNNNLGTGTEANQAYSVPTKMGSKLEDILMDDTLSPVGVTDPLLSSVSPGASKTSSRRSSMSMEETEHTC
The test can be described thus: TRPM1 promoter luciferase signal decrease, dose response, MITF inhibitor project, cell-based, SK-MEL-5, cherry-picked, set 3 (AID 493073).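 Further: SK-MEL-5 melanoma cells with luciferase driven by the MITF target TRPM1 promoter.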 In kind it is functional.

E3 ubiquitin-protein ligase Mdm2, sequence (Q00987 whole entry): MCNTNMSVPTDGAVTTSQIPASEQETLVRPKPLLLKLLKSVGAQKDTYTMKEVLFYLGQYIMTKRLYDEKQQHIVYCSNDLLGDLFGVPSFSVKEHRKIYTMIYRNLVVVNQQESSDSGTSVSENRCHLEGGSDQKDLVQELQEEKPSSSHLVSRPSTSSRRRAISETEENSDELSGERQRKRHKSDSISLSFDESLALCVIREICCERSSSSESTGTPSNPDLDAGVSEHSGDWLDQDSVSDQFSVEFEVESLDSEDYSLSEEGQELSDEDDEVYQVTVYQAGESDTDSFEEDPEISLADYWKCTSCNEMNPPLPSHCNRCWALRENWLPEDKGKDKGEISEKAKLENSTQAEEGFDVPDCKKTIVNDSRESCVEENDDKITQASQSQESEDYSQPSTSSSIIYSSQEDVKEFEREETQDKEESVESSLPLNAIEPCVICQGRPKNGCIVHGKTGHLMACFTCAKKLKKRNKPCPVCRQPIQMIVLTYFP

A word on the EC50: it is the midpoint of the concentration-response curve. Regarding `COc1ccc(C2CC(C(F)(F)F)n3ncc(C(=O)NCC4CCCO4)c3N2)cc1OC` (centres undefined), the EC50 in the test with HEK293 [1] and in the test on HEK293 [2] was > 59.6 µM (inactive) in each case.

By IC50 is commonly meant the concentration that gives 50% inhibition. As to `Fc1ccc(Nc2nc(-c3cccnc3)cs2)cc1`, the IC50 (in test [3]; in the test with HEK293 [4]) was > 67.5 µM (inactive) each time.

The term AC50 denotes the concentration at which the activity in the assay is half-maximal. Take `O=C(O)c1ccccc1C1=Nc2ccc(O)cc2Oc2cc(O)ccc21`: the IC50 on 14-3-3 protein gamma is 5.02 µM (active). In addition, the concentration at half-maximal activity (AC50) was 5.76 µM (active) at ORF 73 and 4.97 µM (active) on Keap1/Nrf2.

As a reminder, the CC50 is the concentration that lowers cell viability or growth by half. For the compound `Cc1ccc2nc(N(CCCN(C)C)C(=O)c3ccc4c(c3)CCCC4)sc2c1`, the CC50 was 16.5 µM (active) in test [5] and > 20 µM (active) in test [8]. The EC50 in test [6] was 12.1 µM (active); in test [7], 15.2 µM (active). In addition, the AC50 in the test with A-375 is 19.7 µM (active). Moreover, the IC50 in the test “cells” was 22.8 µM (active); in test [9], > 20 µM (inactive).

In the case of `COc1ccc(CC(N)c2csc(NC(=O)Nc3ccccc3Cc3ccccc3)n2)cc1` (centres undefined), the EC50 in the test with HEK293 [1] and in the test with HEK293 [2] was > 59.7 µM (inactive) in each case. Besides, the AC50 is < 260 nM (active) in [10]; 12.4 µM (active) in test [11]; 304 nM (active) in test [12]; 832 nM (active) in test [13]; 381 nM (active) in [14].

For `CCCN(CCC)CCCNC(=O)c1cc2c(=O)n(C)c3ccccc3c2n1C`, the AC50 in test [15] was 36.8 µM (active). Further, the results for the IC50 (in test [3]; in the test on HEK293 [4]) were > 67.5 µM (inactive) and 24.7 µM (inactive), respectively.

In the case of `O=C1NC(=O)N(CCc2ccc(F)cc2)C(=O)/C1=C\C=C\c1ccccc1`, the AC50 with A-375 was 33.6 µM (active); in test [17], 8.26 µM (active). The EC50 in test [16] is recorded as 130 nM (not active).

Consider `Cc1ccc(CCNC(=O)CC2Oc3ccc(C)cc3NC2=O)cc1` (centres undefined), for which the IC50 (in test [3]; in the test on HEK293 [4]) was > 67.5 µM (inactive) throughout.
